Assay results taken from the supplement of paper PMC12463676, “Small-molecule dissolution of stress granules by redox modulation benefits ALS models” (Nature Chemical Biology, 2025).

Assays:
[1] = compound: NC(=O)CCCCC1CCSS1 [lipoamide]; test: thermal stability z-score vs DMSO; higher = more thermally stabilized by treatment; conditions: HeLa, lipoamide concentration 100 µM
Procedure: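 Cellular thermal proteome profiling in HeLa cells. Cells were treated with 100 µM lipoamide for 1 h, with or without 1 mM arsenate for a further 1 h, then heated to ten temperatures (37-66.3 °C), and soluble protein was quantified by TMT mass spectrometry relative to 0.1% DMSO controls. The thermal stability score (sum of log2 fold changes minus the abundance score) was transformed to a z-score; mean of n = 3 experiments.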

[2] = compound: O=[As]([O-])(O)O.[K+] [potassium arsenate]; test: as above; conditions: HeLa; arsenate concentration 1 mM
Procedure: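 Cellular thermal proteome profiling in HeLa cells treated with 1 mM arsenate for 1 h (DMSO pretreatment), heated to ten temperatures (37-66.3 °C). Soluble protein was quantified by TMT mass spectrometry relative to DMSO controls; the thermal stability score was transformed to a z-score; mean of n = 3 experiments.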

[3] = arsenate co-treatment: 1 mM arsenate 1 h
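Note: each temperature applied for 3 min, abundance score taken as mean log2 fold change at the two lowest temperatures, z-score obtained by mean subtraction and division by SD.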

Sequence of UniProt Q9H814 (Q9H814 whole entry): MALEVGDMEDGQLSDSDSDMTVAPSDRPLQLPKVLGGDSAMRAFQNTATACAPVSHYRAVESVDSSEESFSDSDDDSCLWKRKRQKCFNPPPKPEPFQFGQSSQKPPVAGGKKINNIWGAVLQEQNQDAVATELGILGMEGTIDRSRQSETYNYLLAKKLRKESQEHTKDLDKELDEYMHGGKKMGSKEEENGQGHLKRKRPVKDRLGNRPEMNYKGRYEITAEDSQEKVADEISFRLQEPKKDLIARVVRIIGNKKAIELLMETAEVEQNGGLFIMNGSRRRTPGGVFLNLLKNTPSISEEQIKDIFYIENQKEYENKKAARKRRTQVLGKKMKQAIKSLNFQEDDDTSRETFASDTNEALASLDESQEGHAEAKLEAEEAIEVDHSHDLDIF
Sequence of UniProt Q8IZ21 (Q8IZ21 whole entry): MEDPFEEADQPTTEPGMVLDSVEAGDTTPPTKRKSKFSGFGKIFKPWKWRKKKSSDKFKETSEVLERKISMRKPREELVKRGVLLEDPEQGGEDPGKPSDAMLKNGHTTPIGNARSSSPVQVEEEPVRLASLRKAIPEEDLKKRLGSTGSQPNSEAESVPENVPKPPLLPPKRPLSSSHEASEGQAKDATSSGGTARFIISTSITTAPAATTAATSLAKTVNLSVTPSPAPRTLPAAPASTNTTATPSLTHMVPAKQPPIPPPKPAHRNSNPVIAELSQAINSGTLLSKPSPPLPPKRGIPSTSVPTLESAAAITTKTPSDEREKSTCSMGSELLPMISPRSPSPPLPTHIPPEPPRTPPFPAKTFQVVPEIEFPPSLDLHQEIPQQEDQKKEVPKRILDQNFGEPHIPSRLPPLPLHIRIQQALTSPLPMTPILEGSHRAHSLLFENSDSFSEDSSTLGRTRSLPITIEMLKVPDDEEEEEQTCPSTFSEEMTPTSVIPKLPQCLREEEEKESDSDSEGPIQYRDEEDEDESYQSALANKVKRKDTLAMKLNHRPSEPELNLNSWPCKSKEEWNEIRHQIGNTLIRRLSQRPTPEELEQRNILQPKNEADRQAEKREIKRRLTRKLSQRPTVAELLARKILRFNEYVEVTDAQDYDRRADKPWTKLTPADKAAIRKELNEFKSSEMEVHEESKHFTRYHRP
Sequence of UniProt Q6PCE3 (Q6PCE3 whole entry): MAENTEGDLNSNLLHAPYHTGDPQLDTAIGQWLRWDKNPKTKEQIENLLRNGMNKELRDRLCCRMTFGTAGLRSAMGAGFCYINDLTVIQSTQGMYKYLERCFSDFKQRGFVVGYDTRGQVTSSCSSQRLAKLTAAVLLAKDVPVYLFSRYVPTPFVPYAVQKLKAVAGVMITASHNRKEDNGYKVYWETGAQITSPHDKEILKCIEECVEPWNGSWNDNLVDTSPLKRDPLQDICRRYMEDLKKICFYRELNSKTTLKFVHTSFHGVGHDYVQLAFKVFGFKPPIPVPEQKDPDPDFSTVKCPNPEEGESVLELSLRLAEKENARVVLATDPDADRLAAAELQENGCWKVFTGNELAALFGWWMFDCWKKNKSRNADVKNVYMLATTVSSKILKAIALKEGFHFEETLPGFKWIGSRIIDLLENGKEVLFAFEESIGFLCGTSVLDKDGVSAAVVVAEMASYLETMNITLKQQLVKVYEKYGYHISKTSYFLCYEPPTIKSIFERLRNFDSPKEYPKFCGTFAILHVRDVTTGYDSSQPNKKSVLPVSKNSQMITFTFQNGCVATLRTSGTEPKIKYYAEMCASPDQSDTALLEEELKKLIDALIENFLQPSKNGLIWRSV
Sequence of UniProt P36871 (P36871 whole entry): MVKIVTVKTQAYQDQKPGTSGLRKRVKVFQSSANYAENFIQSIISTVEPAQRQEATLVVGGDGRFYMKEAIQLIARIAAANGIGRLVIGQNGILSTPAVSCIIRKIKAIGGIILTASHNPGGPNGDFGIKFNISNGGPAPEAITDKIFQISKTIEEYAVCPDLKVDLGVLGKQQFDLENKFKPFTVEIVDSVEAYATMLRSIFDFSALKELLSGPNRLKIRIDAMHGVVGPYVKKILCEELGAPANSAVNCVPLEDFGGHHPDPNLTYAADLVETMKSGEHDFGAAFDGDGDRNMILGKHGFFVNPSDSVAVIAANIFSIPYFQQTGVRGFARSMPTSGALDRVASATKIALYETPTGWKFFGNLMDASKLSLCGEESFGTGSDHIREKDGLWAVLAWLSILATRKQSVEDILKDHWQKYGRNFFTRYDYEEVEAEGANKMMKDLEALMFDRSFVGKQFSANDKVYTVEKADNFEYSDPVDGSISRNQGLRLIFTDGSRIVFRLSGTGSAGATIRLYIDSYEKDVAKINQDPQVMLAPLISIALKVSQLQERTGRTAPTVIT
Sequence of UniProt Q9NQP4 (Q9NQP4 whole entry): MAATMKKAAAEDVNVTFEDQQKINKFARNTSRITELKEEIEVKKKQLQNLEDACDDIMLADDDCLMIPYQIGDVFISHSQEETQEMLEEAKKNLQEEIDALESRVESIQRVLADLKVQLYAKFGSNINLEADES
Sequence of UniProt Q9UHV9 (Q9UHV9 whole entry): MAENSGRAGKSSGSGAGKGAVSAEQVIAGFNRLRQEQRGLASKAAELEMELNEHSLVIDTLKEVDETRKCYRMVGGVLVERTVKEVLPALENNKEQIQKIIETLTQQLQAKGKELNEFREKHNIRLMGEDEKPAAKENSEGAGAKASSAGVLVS
Sequence of UniProt O15173 (O15173 whole entry): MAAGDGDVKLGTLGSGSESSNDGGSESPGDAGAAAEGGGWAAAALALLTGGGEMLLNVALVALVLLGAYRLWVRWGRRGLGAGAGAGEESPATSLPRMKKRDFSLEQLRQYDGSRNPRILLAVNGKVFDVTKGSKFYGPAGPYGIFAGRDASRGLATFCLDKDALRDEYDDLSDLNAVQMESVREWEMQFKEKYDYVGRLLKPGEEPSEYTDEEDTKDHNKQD
Sequence of UniProt Q96G03 (Q96G03 whole entry): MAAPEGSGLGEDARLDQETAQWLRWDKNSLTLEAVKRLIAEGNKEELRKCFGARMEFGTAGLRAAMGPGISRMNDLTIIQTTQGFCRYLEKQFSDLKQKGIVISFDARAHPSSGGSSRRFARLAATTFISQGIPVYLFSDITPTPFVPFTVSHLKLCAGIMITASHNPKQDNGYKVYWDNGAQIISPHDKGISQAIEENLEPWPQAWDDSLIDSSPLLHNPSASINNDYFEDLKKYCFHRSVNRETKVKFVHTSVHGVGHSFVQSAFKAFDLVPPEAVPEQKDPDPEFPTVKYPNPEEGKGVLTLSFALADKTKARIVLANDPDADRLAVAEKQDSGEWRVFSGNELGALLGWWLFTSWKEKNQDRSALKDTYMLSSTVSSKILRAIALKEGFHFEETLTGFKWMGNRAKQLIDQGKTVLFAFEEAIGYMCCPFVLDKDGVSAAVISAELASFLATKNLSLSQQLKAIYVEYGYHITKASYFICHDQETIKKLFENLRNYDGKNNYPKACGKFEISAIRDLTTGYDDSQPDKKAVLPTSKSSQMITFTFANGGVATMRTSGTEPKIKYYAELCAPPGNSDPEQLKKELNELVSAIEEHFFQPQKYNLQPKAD
Sequence of UniProt O95394 (O95394 whole entry): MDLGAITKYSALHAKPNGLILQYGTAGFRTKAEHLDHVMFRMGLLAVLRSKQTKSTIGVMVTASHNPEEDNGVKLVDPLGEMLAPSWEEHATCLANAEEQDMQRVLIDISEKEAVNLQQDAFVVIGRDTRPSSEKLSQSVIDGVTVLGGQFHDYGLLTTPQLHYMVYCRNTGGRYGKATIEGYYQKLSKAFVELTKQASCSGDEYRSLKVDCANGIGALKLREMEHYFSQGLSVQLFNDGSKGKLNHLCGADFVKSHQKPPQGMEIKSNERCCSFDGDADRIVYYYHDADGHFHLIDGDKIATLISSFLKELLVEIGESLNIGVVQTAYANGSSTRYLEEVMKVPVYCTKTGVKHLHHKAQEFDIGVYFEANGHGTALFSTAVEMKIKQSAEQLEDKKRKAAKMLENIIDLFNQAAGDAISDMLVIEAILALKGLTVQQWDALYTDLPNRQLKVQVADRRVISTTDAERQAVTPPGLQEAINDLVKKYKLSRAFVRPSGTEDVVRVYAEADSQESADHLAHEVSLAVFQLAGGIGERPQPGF
Sequence of UniProt Q99471 (Q99471 whole entry): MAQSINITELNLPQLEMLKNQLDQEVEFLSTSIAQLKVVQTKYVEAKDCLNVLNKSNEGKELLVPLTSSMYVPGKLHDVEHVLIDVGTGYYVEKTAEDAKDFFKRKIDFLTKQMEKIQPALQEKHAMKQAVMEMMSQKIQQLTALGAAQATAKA
Sequence of UniProt P00558 (P00558 whole entry): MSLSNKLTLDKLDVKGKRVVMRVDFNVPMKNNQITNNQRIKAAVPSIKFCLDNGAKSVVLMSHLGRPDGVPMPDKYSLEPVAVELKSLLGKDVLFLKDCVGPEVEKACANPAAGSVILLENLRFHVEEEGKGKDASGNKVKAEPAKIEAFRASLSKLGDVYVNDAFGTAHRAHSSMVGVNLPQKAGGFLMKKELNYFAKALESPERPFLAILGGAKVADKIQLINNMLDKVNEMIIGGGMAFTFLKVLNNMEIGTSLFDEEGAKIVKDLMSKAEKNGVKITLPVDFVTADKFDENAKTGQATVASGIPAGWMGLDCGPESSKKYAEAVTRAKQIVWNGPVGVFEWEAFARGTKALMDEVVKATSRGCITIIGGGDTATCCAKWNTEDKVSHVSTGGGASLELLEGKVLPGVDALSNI
Sequence of UniProt Q9NRX4 (Q9NRX4 whole entry): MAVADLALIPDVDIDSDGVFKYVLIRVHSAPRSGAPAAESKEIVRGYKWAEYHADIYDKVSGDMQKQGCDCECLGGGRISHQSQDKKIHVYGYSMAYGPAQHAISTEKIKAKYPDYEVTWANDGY
Sequence of UniProt Q53GA4 (Q53GA4 whole entry): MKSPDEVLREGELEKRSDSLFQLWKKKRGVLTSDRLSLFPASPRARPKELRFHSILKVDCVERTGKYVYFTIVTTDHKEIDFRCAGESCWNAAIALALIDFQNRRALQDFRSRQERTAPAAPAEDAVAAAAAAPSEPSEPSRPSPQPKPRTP

Target | thermal stability z-score [1, 3] | thermal stability z-score ([1]; arsenate co-treatment: none) | thermal stability z-score [2]
PFDN2 (UniProt Q9UHV9) | 0.967 | 1.21 | 0.132
PFDN4 (UniProt Q9NQP4) | 0.286 | 0.37 | -0.445
PFDN5 (UniProt Q99471) | 1.81 | 1.27 | 1.22
PFDN6 (UniProt O15212) | 1.95 | 2.18 | 1.42
PFKFB2 (UniProt O60825) | 0.137 | 0.1 | -0.631
PFKFB3 (UniProt Q16875) | -0.179 | -0.149 | 0.00649
PFKL (UniProt P17858) | 0.344 | 0.367 | 0.476
PFKM (UniProt P08237) | 0.24 | 0.235 | -0.134
PFKP (UniProt Q01813) | 0.365 | 0.542 | 0.0448
PGAM1 (UniProt P18669) | -0.0445 | 0.244 | -0.0878
PGAM5 (UniProt Q96HS1) | 0.0875 | 0.709 | 0.701
PGD (UniProt P52209) | 0.318 | 0.403 | 0.259
PGGT1B (UniProt P53609) | -0.242 | 0.0735 | 0.268
PGK1 (UniProt P00558) | 0.239 | 0.256 | -0.469
PGLS (UniProt O95336) | 0.924 | -0.683 | -1.3
PGM1 (UniProt P36871) | -0.181 | -0.205 | -0.103
PGM2 (UniProt Q96G03) | -0.0134 | -0.155 | -0.24
PGM2L1 (UniProt Q6PCE3) | 0.405 | 0.129 | 0.314
PGM3 (UniProt O95394) | 0.0643 | -0.0248 | 0.188
PGP (UniProt A6NDG6) | 0.339 | -0.0409 | -0.245
PGRMC1 (UniProt O00264) | 0.421 | 0.452 | 0.982
PGRMC2 (UniProt O15173) | 0.682 | 0.466 | 0.479
PGS1 (UniProt Q32NB8) | 0.522 | 0.683 | -0.266
PHACTR2 (UniProt O75167) | 0.56 | -0.408 | -0.387
PHACTR4 (UniProt Q8IZ21) | 0.747 | 0.22 | -0.282
PHAX (UniProt Q9H814) | 0.329 | 0.358 | 0.321
PHB2 (UniProt Q99623) | 0.27 | 0.289 | 0.108
PHB (UniProt P35232) | 0.394 | 0.55 | 0.222

Target | thermal stability z-score [1, 3] | thermal stability z-score ([1]; arsenate co-treatment: none) | thermal stability z-score [2]
PHF3 (UniProt Q92576) | 1.05 | 0.76 | -0.848
PHF5A (UniProt Q7RTV0) | 0.703 | 0.339 | -5.28
PHF6 (UniProt Q8IWS0) | -0.33 | -0.552 | -3.52
PHF10 (UniProt Q8WUB8) | -0.191 | -0.061 | -0.359
PHF14 (UniProt O94880) | -0.247 | 0.314 | -0.242
PHF23 (UniProt Q9BUL5) | 0.843 | 0.376 | -3.81
PHGDH (UniProt O43175) | 1.08 | 0.761 | -2.42
PHKA1 (UniProt P46020) | -0.125 | -0.051 | 0.0887
PHKA2 (UniProt P46019) | -0.174 | 0.096 | -0.0062
PHKB (UniProt Q93100) | 0.125 | 0.135 | 0.278
PHKG2 (UniProt P15735) | 0.926 | 1.04 | 0.714
PHLDA2 (UniProt Q53GA4) | -0.116 | 0.13 | 1.41
PHLDB1 (UniProt Q86UU1) | -0.559 | 0.362 | 0.2
PHLDB2 (UniProt Q86SQ0) | -1.07 | -0.89 | -0.277
PHLPP1 (UniProt O60346) | 0.138 | -0.144 | -0.061
PHPT1 (UniProt Q9NRX4) | 0.922 | 0.553 | -1.95
PHYH (UniProt O14832) | 0.0197 | -0.12 | -0.196
PHYHD1 (UniProt Q5SRE7) | -0.0705 | 0.173 | 0.196
PI4K2A (UniProt Q9BTU6) | 0.0172 | -0.189 | -0.0745
PI4K2B (UniProt Q8TCG2) | -0.541 | 0.209 | -0.451
PI4KA (UniProt P42356) | -0.343 | -0.333 | -0.732
PI4KB (UniProt Q9UBF8) | -0.62 | 0.386 | 0.692
PIAS4 (UniProt Q8N2W9) | 0.144 | 0.2 | 0.136
PIBF1 (UniProt Q8WXW3) | -0.108 | -0.184 | -0.0727
PICALM (UniProt Q13492) | 0.107 | -0.16 | -0.0231
PIEZO1 (UniProt Q92508) | -0.342 | 0.0689 | 0.19
PIGA (UniProt P37287) | 0.843 | 0.283 | 0.147
